Reference: publication PMC7496091, “Small‐Molecule Inhibitors Targeting Sterol 14α‐Demethylase (CYP51): Synthesis, Molecular Modelling and Evaluation Against Candida albicans” (Chemmedchem, 2020)
In brackets after ≈: the same amount, converted by molar mass. Where two headings read alike, the source gives them in different places.

Assays:
C. albicans SC5314 = test: MIC, CLSI M27-S4 broth dilution, strain SC5314; assay type: cell-based, Candida albicans; details: 48 hours
Procedure: The susceptibilities of the SC5314 and CA14C. albicans (azole sensitive) strains to all novel azole derivatives (5, 7 and 12) were determined (Table 3) using the standardized CLSI M27‐S4 broth dilution method.28
Susceptibility testing of C. albicans strains. […] Stock solutions of each agent were prepared in DMSO. Further dilutions were made in RPMI‐1640, and the final concentration of DMSO was 1 % (v/v). The final testing concentrations for all compounds ranged from 0.03–16 μg mL^−1.

C. albicans CA14 = test: MIC, CLSI M27-S4 broth dilution, strain CA14; assay type: cell-based, Candida albicans; details: 48 hours
Procedure: Susceptibility testing of C. albicans strains. […] Stock solutions of each agent were prepared in DMSO. […] The final testing concentrations for all compounds ranged from 0.03–16 μg mL^−1.

CaCYP51 [1] = molecular target: T1, CaCYP51 (Candida albicans, UniProt P10613); test: biochemical
T1 construct: made in house; host or cells: Escherichia coli
Procedure: […]. […] […]. CYP51 reconstitution assays. IC50 values were determined for individual azole compounds18, 30 using lanosterol as substrate. Azoles were introduced using 2.5 μL of stock solutions in DMSO. CaCYP51 assays contained 1 μM CaCYP51 and 2 μM Homo sapiens cytochrome P450 reductase (HsCPR – UniProtKB accession number P16435) and were incubated for 20 min at 37 °C. HsCYP51 assays contained 0.25 μM Δ60HsCYP51 and 1 μM HsCPR and were incubated for 10 min at 37 °C. Each IC50 experiment was performed in duplicate.

CaCYP51 [2] = molecular target: T1, CaCYP51; test: biochemical; assay type: binding
Excerpt: […]. There were no signs of compound insolubility (visible or rising background absorbance) during the ligand titrations. […] […].
The rearranged Morrison equation34 gave the best fit to the ligand saturation curves against CaCYP51 (Figure 5) indicating the selected compounds bound tightly to the purified CaCYP51 protein in free solution. Likewise the rearranged Morrison equation34 gave the best fit for binding 5 d and 5 f to Δ60HsCYP51, thus indicating tight binding in free solution (Figure 5). […].
Recombinant CYP51 protein studies. […] All azole ligand binding determinations were performed in triplicate, except the binding of compound 12 c with Δ60HsCYP51 which was performed six times. CYP51 protein samples were diluted with 0.1 M Tris⋅HCl (pH 8.1) and 25 % (w/v) glycerol to the required concentration.
(§1) Dissociation constant (K d). The K d for each CYP51‐azole complex was determined by non‐linear regression (Levenberg‐Marquardt algorithm) using a rearrangement of the Morrison equation for tight ligand binding.34 Where ligand binding was weaker, the Michaelis‐Menten equation was used to fit the data (Figure S5). K d values were determined for each of the three replicate titrations per azole compound and then mean K d values and standard deviations calculated.

Δ60HsCYP51 [3] = molecular target: T2, Δ60HsCYP51 (Homo sapiens, UniProt Q16850); test: Azole ligand binding titration (type II difference spectra, Kd), Δ60HsCYP51
Procedure: Recombinant CYP51 protein studies.
as §1

Δ60HsCYP51 [4] = molecular target: T2, Δ60HsCYP51; test: CYP51 reconstitution assay (IC50), Δ60HsCYP51; assay type: biochemical
Procedure: CYP51 reconstitution assays. […] Azoles were introduced using 2.5 μL of stock solutions in DMSO. […] Each IC50 experiment was performed in duplicate.

[5] = 1 μM CaCYP51, lanosterol as substrate, curve-fitted, read-out: CaCYP51 IC50
[6] = Candida albicans, SC5314, 80 % reduction in turbidity
[7] = Candida albicans, SC5314, value in brackets
[8] = Candida albicans, CA14, 80 % reduction in turbidity
[9] = Candida albicans, CA14, value in brackets
[10] = 3 μM native CaCYP51, mean of three replicates ± SD, read-out: K d CaCYP51

T1 sequence (P10613 whole entry): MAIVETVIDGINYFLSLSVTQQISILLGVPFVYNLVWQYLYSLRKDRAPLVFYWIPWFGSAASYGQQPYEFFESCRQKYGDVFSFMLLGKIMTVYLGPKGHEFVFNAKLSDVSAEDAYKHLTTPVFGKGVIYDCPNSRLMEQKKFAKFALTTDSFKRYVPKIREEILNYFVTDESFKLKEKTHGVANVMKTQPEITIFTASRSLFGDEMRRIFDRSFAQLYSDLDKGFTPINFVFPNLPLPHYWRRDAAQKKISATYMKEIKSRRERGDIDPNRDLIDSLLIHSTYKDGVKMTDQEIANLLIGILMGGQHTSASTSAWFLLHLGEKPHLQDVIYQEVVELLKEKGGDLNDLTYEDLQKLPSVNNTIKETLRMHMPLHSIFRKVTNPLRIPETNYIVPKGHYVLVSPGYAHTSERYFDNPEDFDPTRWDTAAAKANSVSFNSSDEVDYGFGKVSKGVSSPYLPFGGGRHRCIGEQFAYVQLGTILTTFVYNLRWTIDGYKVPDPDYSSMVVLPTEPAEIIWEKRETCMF
T2 sequence (Q16850 61-509, stated change not applied): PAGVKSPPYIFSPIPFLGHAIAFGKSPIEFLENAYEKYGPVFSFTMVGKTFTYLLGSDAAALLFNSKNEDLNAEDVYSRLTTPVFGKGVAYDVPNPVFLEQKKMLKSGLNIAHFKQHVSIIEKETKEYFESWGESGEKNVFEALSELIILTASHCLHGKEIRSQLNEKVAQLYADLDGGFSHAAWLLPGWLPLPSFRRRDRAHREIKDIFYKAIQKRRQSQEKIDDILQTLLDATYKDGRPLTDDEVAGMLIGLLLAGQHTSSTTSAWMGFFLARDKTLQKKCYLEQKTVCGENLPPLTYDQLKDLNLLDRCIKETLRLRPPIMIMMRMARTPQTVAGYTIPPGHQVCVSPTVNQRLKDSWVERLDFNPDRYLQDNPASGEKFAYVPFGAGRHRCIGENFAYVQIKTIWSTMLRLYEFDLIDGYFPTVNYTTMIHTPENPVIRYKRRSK
T2 sequence (P16435 2-677, stated change not applied, further chain): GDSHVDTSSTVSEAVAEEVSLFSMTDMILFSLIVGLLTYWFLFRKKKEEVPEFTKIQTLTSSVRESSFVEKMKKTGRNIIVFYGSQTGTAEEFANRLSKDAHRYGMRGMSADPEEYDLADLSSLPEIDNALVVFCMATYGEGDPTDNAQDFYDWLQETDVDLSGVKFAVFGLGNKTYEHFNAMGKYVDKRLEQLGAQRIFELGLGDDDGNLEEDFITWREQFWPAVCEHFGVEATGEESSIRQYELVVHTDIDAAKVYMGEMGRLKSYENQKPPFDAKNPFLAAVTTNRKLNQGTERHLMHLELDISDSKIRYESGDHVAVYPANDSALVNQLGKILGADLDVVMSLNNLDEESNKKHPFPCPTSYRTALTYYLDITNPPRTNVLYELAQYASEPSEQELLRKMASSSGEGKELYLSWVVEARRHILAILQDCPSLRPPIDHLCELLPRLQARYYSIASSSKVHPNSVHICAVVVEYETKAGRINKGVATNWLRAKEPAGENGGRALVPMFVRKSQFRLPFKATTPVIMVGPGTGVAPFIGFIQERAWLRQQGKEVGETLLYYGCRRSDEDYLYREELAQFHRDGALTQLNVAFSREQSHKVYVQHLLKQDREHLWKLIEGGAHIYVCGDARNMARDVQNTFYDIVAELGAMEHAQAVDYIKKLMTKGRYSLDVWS

| SMILES | IC50 (CaCYP51 [1]; [5]) [nM] | melting point [°C] | MIC (C. albicans SC5314; [6]) [µg/mL] | MIC (C. albicans SC5314; [7]) [µM] | MIC (C. albicans CA14; [8]) [µg/mL] | MIC (C. albicans CA14; [9]) [µM] | Kd (CaCYP51 [2]; [10]) [nM] | also measured |
| --- | --- | --- | --- | --- | --- | --- | --- | --- |
| O=C(NCc1ccc(C(F)(F)F)cc1)C(Cn1ccnc1)c1ccccc1 (centres unmarked) [Compound 5 h, 3‐(1H‐Imidazol‐1‐yl)‐2‐phenyl‐N‐(4‐(trifluoromethyl)benzyl)propanamide] | 2210 | – | 4 | 10.7 | 4 | 10.7 | 85 ± 19 | – |
| C=C(C(=O)NCc1ccc(Cl)cc1Cl)c1ccc(Cl)cc1 [Compound 6 f, 2‐(4‐Chlorophenyl)‐N‐(2,4‐dichlorobenzyl)acrylamide] | – | 104 to 106 | – | – | – | – | – | – |
| OC(Cn1cncn1)(Cn1cncn1)c1ccc(F)cc1F [fluconazole, reference compound] | – | – | 0.125 | 0.41 | 0.125 | 0.41 | – | IC50 (CaCYP51 [1]): 310 nM; Ki (CaCYP51 [1]): 30 nM; Kd (CaCYP51 [2]): 41 ± 13 nM; Type of difference binding spectra with Δ60HsCYP51 (Δ60HsCYP51 [3]; titration with Δ60HsCYP51): type II difference binding spectra |
| COc1ccc(CNC(=O)C(Cn2ccnc2)c2ccccc2)cc1 (centres unmarked) [Compound 5 i, 3‐(1H‐Imidazol‐1‐yl)‐N‐(4‐methoxybenzyl)‐2‐phenylpropanamide] | 910 | 102 to 104 | 8 | 23.9 | 8 | 23.9 | 55 ± 10 | – |
| C=C(C(=O)NCc1ccc(C)cc1)c1ccccc1 [Compound 6 g, N‐(4‐Methylbenzyl)‐2‐phenylacrylamide] | – | 92 to 94 | – | – | – | – | – | – |
| C=C(C(=O)NCc1ccc(Cl)cc1Cl)c1ccccc1 [Compound 6 e, N‐(2,4‐Dichlorobenzyl)‐2‐phenylacrylamide] | – | 66 to 68 | – | – | – | – | – | – |
| CC[C@@H]([C@H](C)O)n1ncn(-c2ccc(N3CCN(c4ccc(OC[C@@H]5CO[C@@](Cn6cncn6)(c6ccc(F)cc6F)C5)cc4)CC3)cc2)c1=O [posaconazole, reference compound] | – | – | – | – | – | – | 43 ± 11 | IC50 (Δ60HsCYP51 [4]): 123000 nM; Kd (Δ60HsCYP51 [3]): 204 ± 63 nM |
| O=C(NCc1ccc(F)cc1)C(Cn1ccnc1)c1ccccc1 (centres unmarked) [Compound 5 b, N‐(4‐Fluorobenzyl)‐3‐(1H‐imidazol‐1‐yl)‐2‐phenylpropanamide] | 1410 | 100 to 102 | 8 | 24.7 | 4 | 12.4 | 87 ± 27 | – |
| C=C(C(=O)NCc1ccc(Cl)cc1)c1ccc(Cl)cc1 [Compound 6 d, N‐(4‐Chlorobenzyl)‐2‐(4‐chlorophenyl)acrylamide] | – | 108 to 110 | – | – | – | – | – | – |
| Cc1ccc(CNC(=O)C(Cn2ccnc2)c2ccccc2)cc1 (centres unmarked) [Compound 5 g, 3‐(1H‐Imidazol‐1‐yl)‐N‐(4‐methylbenzyl)‐2‐phenylpropanamide] | 2450 | 134 to 136 | 8 | 25.1 | 8 | 25.1 | 144 ± 47 | – |
| O=C(NCc1ccc(Cl)cc1Cl)C(Cn1ccnc1)c1ccccc1 (centres unmarked) [Compound 5 e, N‐(2,4‐Dichlorobenzyl)‐3‐(1H‐imidazol‐1‐yl)‐2‐phenylpropanamide] | 990 | 55 to 57 | 1 | 2.67 | 1 | 2.67 | 83 ± 26 | – |
| C[C@@H](c1ncncc1F)[C@](O)(Cn1cncn1)c1ccc(F)cc1F [voriconazole, reference compound] | – | – | – | – | – | – | – | IC50 (Δ60HsCYP51 [4]): 78000 nM |
| O=C(NCc1ccc(Cl)cc1)C(Cn1ccnc1)c1ccccc1 (centres unmarked) [Compound 5 c, N‐(4‐Chlorobenzyl)‐3‐(1H‐imidazol‐1‐yl)‐2‐phenylpropanamide] | 1010 | – | – | – | – | – | 60 ± 4 | MIC SC5314 (C. albicans SC5314; 80 % reduction in turbidity): 8 µg/mL (≈ 23.5 µM); MIC (C. albicans SC5314; value in brackets): 23.5 µM; MIC CA14 (C. albicans CA14; 80 % reduction in turbidity): 4 µg/mL (≈ 11.8 µM); MIC (C. albicans CA14; value in brackets): 11.8 µM |
| COc1ccc(CNC(=O)C(Cn2ccnc2)c2ccccc2)cc1OC (centres unmarked) [Compound 5 j, N‐(3,4‐Dimethoxybenzyl)‐3‐(1H‐imidazol‐1‐yl)‐2‐phenylpropanamide] | 6150 | – | > 16 | > 43.8 | > 16 | > 43.8 | – | – |
| C=C(C(=O)NCc1ccc(F)cc1)c1ccccc1 [Compound 6 b, N‐(4‐Fluorobenzyl)‐2‐phenylacrylamide] | – | 108 to 110 | – | – | – | – | – | – |
| O=C(NCc1ccc(Cl)cc1)C(Cn1cncn1)c1ccccc1 (centres unmarked) [Compound 5 k, N‐(4‐Chlorobenzyl)‐2‐phenyl‐3‐(1H‐1,2,4‐triazol‐1‐yl)propanamide] | 4320 | – | – | – | – | – | 167 ± 17 | MIC SC5314 (C. albicans SC5314; 80 % reduction in turbidity): 8 µg/mL (≈ 23.5 µM); MIC (C. albicans SC5314; value in brackets): 23.5 µM; MIC CA14 (C. albicans CA14; 80 % reduction in turbidity): 8 µg/mL (≈ 23.5 µM); MIC (C. albicans CA14; value in brackets): 23.5 µM |

Now from value to compound, other results behind:

| IC50 (CaCYP51 [1]; [5]) [nM] | melting point [°C] | MIC (C. albicans SC5314; [6]) [µg/mL] | MIC (C. albicans SC5314; [7]) [µM] | MIC (C. albicans CA14; [8]) [µg/mL] | MIC (C. albicans CA14; [9]) [µM] | Kd (CaCYP51 [2]; [10]) [nM] | SMILES | also measured |
| --- | --- | --- | --- | --- | --- | --- | --- | --- |
| 1960 | – | – | – | – | – | – | Nc1ccc(CNC(=O)C(Cn2cncn2)c2ccccc2)cc1.O=C(O)C(F)(F)F (centres unmarked) [Compound 7] | MIC SC5314 (C. albicans SC5314; 80 % reduction in turbidity): > 16 µg/mL; MIC (C. albicans SC5314; value in brackets): > 36.8 µM; MIC CA14 (C. albicans CA14; 80 % reduction in turbidity): > 16 µg/mL; MIC (C. albicans CA14; value in brackets): > 36.8 µM |
| – | 136 to 138 | – | – | – | – | – | C=C(C(=O)NCc1ccc(NS(=O)(=O)c2ccc(F)cc2)cc1)c1ccccc1 [Compound 13 b, N‐(4‐((4‐Fluorophenyl)sulfonamido)benzyl)‐2‐phenylacrylamide] | – |
| – | 88 to 90 | – | – | – | – | – | C=C(C(=O)NCc1ccc(C(F)(F)F)cc1)c1ccccc1 [Compound 6 h, 2‐Phenyl‐N‐(4‐(trifluoromethyl)benzyl)acrylamide] | – |
| – | 100 to 102 | – | – | – | – | – | C=C(C(=O)NCc1ccc(OC)cc1)c1ccccc1 [Compound 6 i, N‐(4‐Methoxybenzyl)‐2‐phenylacrylamide] | – |
| – | 98 to 100 | – | – | – | – | – | C=C(C(=O)NCc1ccc(NS(=O)(=O)c2ccc(OC)cc2)cc1)c1ccccc1 [Compound 13 d, N‐(4‐((4‐Methoxyphenyl)sulfonamido)benzyl)‐2‐phenylacrylamide] | – |
| – | 102 to 104 | – | – | – | – | – | C=C(C(=O)NCc1ccc(OC)c(OC)c1)c1ccccc1 [Compound 6 j, N‐(3,4‐Dimethoxybenzyl)‐2‐phenylacrylamide] | – |
| 540 | 96 to 98 | 4 | 8.67 | 4 | 8.67 | 115 ± 16 | O=C(NCc1ccc(NS(=O)(=O)c2ccccc2)cc1)C(Cn1cncn1)c1ccccc1 (centres unmarked) [Compound 12 a, 2‐Phenyl‐N‐(4‐(phenylsulfonamido)benzyl)‐3‐(1H‐1,2,4‐triazol‐1‐yl)propanamide] | – |
| – | 136 to 138 | – | – | – | – | – | C=C(C(=O)NCc1ccc(NC(=O)OC(C)(C)C)cc1)c1ccccc1 [Compound 6 l, tert‐Butyl (4‐((2‐phenylacrylamido)methyl)phenyl)carbamate] | – |
| 790 | – | 8 | 16.3 | 4 | 8.14 | 110 ± 22 | COc1ccc(S(=O)(=O)Nc2ccc(CNC(=O)C(Cn3cncn3)c3ccccc3)cc2)cc1 (centres unmarked) [Compound 12 d, 2‐Phenyl‐N‐(4‐(4‐methoxyphenylsulfonamido)benzyl)‐3‐(1H‐1,2,4‐triazol‐1‐yl)propanamide] | – |
| 200 | – | – | – | – | – | 55 ± 27 | O=C(NCc1ccc(NS(=O)(=O)c2ccc(F)cc2)cc1)C(Cn1cncn1)c1ccccc1 (centres unmarked) [Compound 12 b, N‐(4‐((4‐Fluorophenyl)sulfonamido)benzyl)‐2‐phenyl‐3‐(1H‐1,2,4‐triazol‐1‐yl) propanamide] | MIC SC5314 (C. albicans SC5314; 80 % reduction in turbidity): 4 µg/mL (≈ 8.34 µM); MIC (C. albicans SC5314; value in brackets): 8.34 µM; MIC CA14 (C. albicans CA14; 80 % reduction in turbidity): 2 µg/mL (≈ 4.17 µM); MIC (C. albicans CA14; value in brackets): 4.17 µM |
